From paper PMC5622079, “Control of leucine-dependent mTORC1 pathway through chemical intervention of leucyl-tRNA synthetase and RagD interaction” (Nature Communications, 2017)

What was measured:
[1] = target: T1, Leucyl-tRNA synthetase (LRS) (Homo sapiens, UniProt Q9P2J5); assay: SPR (Biacore T-200, immobilised His-LRS); assay type: binding; set-up: gene LARS1; His-LRS WT
[2] = target: T1, Leucyl-tRNA synthetase (LRS); assay: HDX-MS (with BC-LI-0198) and thermal shift; assay type: binding; set-up: gene LARS1; human full-length LRS, N-terminal His9-tag

T1 sequence (Q9P2J5 whole entry): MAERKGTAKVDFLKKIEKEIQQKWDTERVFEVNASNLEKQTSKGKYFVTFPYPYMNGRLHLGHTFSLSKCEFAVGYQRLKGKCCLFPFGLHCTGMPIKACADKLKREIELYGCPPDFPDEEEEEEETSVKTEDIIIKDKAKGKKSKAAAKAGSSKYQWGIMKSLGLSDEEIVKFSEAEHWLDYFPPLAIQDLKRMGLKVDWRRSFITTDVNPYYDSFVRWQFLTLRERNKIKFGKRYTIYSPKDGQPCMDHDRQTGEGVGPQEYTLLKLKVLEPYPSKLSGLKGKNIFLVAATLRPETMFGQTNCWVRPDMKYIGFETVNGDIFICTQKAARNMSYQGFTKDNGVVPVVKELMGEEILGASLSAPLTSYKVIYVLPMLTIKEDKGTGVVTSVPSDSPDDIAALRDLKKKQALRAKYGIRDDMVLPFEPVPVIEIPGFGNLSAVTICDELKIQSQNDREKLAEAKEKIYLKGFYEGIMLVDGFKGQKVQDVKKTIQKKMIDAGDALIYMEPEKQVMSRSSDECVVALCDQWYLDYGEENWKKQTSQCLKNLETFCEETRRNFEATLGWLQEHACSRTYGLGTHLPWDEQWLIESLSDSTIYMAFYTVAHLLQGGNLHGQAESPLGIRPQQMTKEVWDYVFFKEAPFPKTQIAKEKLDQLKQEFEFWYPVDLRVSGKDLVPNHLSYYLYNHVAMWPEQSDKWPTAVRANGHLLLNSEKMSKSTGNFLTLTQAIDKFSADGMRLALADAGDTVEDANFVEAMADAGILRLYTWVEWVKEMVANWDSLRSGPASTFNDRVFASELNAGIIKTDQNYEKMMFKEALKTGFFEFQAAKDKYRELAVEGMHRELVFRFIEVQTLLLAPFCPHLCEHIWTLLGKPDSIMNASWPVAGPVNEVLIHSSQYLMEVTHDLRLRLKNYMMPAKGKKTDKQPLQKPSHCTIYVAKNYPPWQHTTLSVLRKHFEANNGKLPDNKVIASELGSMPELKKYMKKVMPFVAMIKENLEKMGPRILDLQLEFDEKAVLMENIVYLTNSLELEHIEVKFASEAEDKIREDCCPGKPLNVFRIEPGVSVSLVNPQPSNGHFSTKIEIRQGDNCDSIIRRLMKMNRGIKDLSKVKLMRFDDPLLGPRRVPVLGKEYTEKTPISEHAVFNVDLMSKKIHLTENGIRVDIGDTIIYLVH

Kd [1]	SMILES	HDX-MS (with BC-LI-0198) and thermal shift [2]
42.1 nM	Cc1c(C(C)C)c(=O)n(-c2ccc(S(=O)(=O)NCCOc3ccccc3)cc2)n1C [BC-LI-0186]	–
–	CC(C)C[C@H](N)C(=O)NS(=O)(=O)OC[C@H]1O[C@@H](n2cnc3c(N)ncnc32)[C@H](O)[C@@H]1O [Leu-AMS]	HDX)-MS assays for LRS bound to BC-LI-0198 and Leu-AMS, a leucyl-sulfamoyl-adenylate analog of leucyl adenylate
